Results published in US20030162662A1, “2-Phenyl-2h-pyridazine-3-ones” (priority 2000, published 2003).

What was measured:
BIDPI (common blackjack) = experiment: Greenhouse herbicidal action, postemergence treatment, BIDPI; format: in vivo
Description: (§1) The herbicidal action of the 2-phenylpyridazin-3-one compounds of the formula I could be shown by means of greenhouse experiments: […]
(§2) The cultivation containers used were plastic pots containing loamy sand with approximately 3.0% of humus as a substrate. The seeds of the test plants were sown separately according to species.
(§3) For the purpose of postemergence treatment, the test plants were first raised up to a growth height of 3 to 15 cm, depending on growth form, and then treated with the active compounds suspended or emulsified in water. For this, the test plants were either sown directly and raised in the same containers or they were first raised separately as seedlings and transplanted into the experimental containers a few days before the treatment. The application rate for the postemergence treatment was 31.2 or 15.6 g of a.S./ha.
(§4) The plants were kept species-specifically at temperatures from 10-25° C. or 20-35° C. The experimental period extended over 2 to 4 weeks. During this time, the plants were tended, and their reaction to the individual treatments was assessed.
(§5) Assessment was carried out on a scale from 0 to 100. 100 here means no emergence of the plants or complete destruction of at least the above-ground parts and 0 means no damage or normal course of growth.
(§6) The plants used in the greenhouse experiments were made up of the following species: […]

SETFA (Faber's foxtail) = experiment: Greenhouse herbicidal action, postemergence treatment, SETFA; format: in vivo
Description: as §1, §2, §3, §4, §5, §6

Compound | herbicidal action against BIDPI (scale 0 to 100; 100 = complete destruction, 0 = no damage) (BIDPI (common blackjack); application rate 15.6 g/ha) [%] | herbicidal action against BIDPI (scale 0 to 100; 100 = complete destruction, 0 = no damage) (BIDPI (common blackjack); application rate 31.2 g/ha) [%] | herbicidal action against SETFA (scale 0 to 100; 100 = complete destruction, 0 = no damage) (SETFA (Faber's foxtail); application rate 15.6 g/ha) [%] | herbicidal action against SETFA (scale 0 to 100; 100 = complete destruction, 0 = no damage) (SETFA (Faber's foxtail); application rate 31.2 g/ha) [%] | melting point [°C]
CCOC(=O)C=Cc1cc(-n2ncc(C(F)(F)F)c(C)c2=O)c(F)cc1Cl [Example I-658 of WO 97/07104, reference compound] | 30 | 30 | 80 |  | 
CCOC(=O)C(Cl)=Cc1cc(-n2ncc(C(F)(F)F)c(C)c2=O)c(F)cc1Cl [Ia.3, 2-[4-Chloro-2-fluoro-5-(2-ethoxycarbonyl-2-chloroethen-1-yl)-phenyl]-4-methyl-5-trifluoromethyl-2H-pyridazin-3-one] | 80 | 100 | 100 | 100 | 
COC(=O)/C(Cl)=C/c1cc(-n2ncc(C(F)(F)F)c(C)c2=O)c(F)cc1Cl [Ib.2] |  |  |  |  | 121 to 123
Cc1c(C(F)(F)F)cnn(-c2cc(/C=C(\Cl)C(N)=O)c(Cl)cc2F)c1=O [Ib.30] |  |  |  |  | 128 to 129
